Drawing on ChEMBL document CHEMBL1909046, “DrugMatrix in vitro pharmacology data”, this text covers IC50 and Ki for 18 molecules.

One series deals with T1, Cytochrome P450 1A2 (Homo sapiens, UniProt P05177).
T1 sequence (P05177 whole entry): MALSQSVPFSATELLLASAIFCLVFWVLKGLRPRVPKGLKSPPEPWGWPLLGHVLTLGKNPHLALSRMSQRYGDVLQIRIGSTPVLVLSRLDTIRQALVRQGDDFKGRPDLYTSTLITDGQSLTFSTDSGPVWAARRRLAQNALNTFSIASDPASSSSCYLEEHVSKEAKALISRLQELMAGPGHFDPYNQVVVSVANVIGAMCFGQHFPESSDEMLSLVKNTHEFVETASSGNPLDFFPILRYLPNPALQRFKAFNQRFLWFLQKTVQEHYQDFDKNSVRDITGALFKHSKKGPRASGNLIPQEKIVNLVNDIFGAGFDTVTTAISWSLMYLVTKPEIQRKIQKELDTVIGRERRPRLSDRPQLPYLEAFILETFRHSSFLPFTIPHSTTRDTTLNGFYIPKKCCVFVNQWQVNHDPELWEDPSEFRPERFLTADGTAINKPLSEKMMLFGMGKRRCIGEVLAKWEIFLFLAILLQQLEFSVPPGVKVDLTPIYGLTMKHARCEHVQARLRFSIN
The following applies: bti-tn-5b1-4.

A further series addresses T2, B2 bradykinin receptor (Homo sapiens, UniProt P30411).
T2 sequence (P30411 whole entry): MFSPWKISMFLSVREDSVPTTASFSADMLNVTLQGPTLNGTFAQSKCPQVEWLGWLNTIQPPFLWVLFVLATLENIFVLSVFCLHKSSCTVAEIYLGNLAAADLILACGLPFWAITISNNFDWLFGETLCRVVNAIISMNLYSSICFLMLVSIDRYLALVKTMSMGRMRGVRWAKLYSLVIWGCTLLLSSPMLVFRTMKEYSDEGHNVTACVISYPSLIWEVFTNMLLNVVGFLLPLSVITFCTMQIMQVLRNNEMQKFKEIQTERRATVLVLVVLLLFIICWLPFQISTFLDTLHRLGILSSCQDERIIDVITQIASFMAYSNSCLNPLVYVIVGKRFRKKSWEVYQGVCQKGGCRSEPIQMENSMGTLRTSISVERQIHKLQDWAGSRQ
Type of series: cell membranes, Membrane. The following applies: chem-1.

For series [1], the target named is Receptor tyrosine-protein kinase erbB-2 (Homo sapiens, UniProt P04626). In words: biochemical. Type of series: cell-based, Insect cells.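 Also: inhibition of HER2 kinase enzyme activity, measured with Poly(Glu:Tyr) as the phosphorylation substrate; in other assays of this panel Not Active means under 50% inhibition at 10 µM.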
Chain of Receptor tyrosine-protein kinase erbB-2 (P04626 whole entry): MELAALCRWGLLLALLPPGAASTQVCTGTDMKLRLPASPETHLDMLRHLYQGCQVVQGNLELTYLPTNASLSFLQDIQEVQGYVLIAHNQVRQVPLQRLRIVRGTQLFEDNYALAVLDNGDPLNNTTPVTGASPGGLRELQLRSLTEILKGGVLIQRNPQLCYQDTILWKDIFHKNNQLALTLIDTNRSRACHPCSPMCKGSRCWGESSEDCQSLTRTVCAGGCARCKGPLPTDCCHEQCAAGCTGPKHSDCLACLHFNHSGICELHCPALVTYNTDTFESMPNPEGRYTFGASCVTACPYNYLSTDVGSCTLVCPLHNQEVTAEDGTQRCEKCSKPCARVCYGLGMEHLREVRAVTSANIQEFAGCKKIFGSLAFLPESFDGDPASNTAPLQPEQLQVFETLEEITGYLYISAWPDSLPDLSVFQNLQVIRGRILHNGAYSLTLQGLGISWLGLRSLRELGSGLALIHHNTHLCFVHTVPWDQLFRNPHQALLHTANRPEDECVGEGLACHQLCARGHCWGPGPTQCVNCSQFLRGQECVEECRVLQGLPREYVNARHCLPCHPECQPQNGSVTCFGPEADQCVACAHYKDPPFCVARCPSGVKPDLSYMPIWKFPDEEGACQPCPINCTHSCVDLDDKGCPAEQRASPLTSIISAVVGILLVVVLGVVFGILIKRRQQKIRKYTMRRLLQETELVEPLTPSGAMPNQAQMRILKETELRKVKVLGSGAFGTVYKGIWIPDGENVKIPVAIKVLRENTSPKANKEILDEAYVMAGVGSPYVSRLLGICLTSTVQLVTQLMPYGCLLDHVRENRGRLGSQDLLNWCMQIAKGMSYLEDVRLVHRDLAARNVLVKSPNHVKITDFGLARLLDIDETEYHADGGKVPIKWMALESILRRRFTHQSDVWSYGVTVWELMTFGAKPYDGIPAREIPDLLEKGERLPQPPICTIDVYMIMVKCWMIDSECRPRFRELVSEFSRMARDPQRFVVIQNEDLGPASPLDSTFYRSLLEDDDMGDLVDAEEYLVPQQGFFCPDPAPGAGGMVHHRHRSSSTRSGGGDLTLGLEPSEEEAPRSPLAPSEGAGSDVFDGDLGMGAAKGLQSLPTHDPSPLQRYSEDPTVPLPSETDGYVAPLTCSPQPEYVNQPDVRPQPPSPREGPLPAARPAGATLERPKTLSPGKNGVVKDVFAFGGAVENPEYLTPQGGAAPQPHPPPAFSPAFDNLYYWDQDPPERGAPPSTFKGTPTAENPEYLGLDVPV
In another series the target is T3, Substance-K receptor (Homo sapiens, UniProt P21452). Also: in other assays of this panel Not Active means under 50% inhibition at 10 µM.
T3 sequence (P21452 whole entry): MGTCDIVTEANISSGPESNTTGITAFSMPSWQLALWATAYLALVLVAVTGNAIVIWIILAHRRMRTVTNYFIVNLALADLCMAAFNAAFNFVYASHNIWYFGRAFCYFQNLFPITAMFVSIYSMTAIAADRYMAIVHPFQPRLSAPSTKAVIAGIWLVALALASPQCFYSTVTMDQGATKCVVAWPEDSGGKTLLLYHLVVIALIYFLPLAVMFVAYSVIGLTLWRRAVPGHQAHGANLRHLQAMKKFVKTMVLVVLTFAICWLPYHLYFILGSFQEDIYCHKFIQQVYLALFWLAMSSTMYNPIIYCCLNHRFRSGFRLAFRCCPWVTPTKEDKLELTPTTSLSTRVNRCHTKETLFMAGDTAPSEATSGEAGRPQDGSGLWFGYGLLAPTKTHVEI
It is filed as cell membranes, CHO, Membrane.

The target of series [2] is T4, 3-hydroxy-3-methylglutaryl-coenzyme A reductase (Homo sapiens, UniProt P04035).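 Also: enzyme inhibition assay of HMG-CoA reductase using radiolabeled [14C]HMG-CoA as substrate; in other assays of this panel Not Active means under 50% inhibition at 10 µM.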
T4 sequence (P04035 whole entry): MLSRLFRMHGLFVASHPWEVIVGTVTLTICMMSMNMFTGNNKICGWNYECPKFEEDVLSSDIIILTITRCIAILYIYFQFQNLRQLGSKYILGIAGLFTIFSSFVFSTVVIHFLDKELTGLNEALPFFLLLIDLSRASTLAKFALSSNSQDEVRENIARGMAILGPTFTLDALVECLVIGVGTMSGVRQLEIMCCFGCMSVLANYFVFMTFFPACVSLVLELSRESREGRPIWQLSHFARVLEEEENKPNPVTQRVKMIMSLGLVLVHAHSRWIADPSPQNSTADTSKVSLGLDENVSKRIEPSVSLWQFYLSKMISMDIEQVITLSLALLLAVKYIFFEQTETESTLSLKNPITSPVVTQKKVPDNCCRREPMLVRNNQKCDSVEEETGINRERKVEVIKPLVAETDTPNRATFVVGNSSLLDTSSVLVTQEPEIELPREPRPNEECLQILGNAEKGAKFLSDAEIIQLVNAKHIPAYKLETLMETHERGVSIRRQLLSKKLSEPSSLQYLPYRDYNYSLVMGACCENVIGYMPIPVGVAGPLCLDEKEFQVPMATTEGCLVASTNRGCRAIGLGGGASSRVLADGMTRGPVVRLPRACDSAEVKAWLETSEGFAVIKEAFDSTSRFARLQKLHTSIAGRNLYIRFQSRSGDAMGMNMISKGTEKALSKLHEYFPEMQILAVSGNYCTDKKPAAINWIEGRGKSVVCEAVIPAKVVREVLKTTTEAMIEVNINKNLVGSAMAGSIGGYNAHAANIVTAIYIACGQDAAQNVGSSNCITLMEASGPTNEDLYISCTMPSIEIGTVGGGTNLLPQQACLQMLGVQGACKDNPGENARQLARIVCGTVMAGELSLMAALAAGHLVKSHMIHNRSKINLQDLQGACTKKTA
Also on record: species or system Escherichia coli.

The nature of series [3]: DRUGMATRIX: Calcium Channel Type L, Phenylalkylamine radioligand binding (ligand: [3H] (-)-Desmethoxyverapamil (D-888)). It is filed as cell membranes, Rattus norvegicus, Wistar, Brain, Membrane. Conditions: Not Active = under 50% inhibition at 10 µM.

Broadly, the IC50 is the point on the concentration scale where inhibition reaches its midpoint. Broadly, the Ki is the equilibrium dissociation constant of an inhibitor or competing ligand from its target. For `CC(C)CN(C[C@@H](O)[C@H](Cc1ccccc1)NC(=O)O[C@H]1CCOC1)S(=O)(=O)c1ccc(N)cc1`, the IC50 result (against Cytochrome P450 1A2; on B2 bradykinin receptor; in series [1] (insect cells); at Substance-K receptor (cho); in series [2]; in series [3]) was “Not Active” throughout. Further, the Ki entry (at Cytochrome P450 1A2; in series [3]) was “Not Active” in each case.
With `c1ccc(Nc2ccc(Nc3ccccc3)cc2)cc1`, the concentration for half-maximal inhibition (IC50) result (against Cytochrome P450 1A2; against B2 bradykinin receptor; in series [1] (insect cells); against Substance-K receptor (cho); in series [2]; in series [3]) was “Not Active” in each case. Further, the inhibitory constant (Ki) result (on Cytochrome P450 1A2; in series [3]) was “Not Active” in each case.
`COc1cc2c3cc1Oc1cc(ccc1O)C[C@@H]1c4c(cc(OC)c(O)c4Oc4ccc(cc4)C[C@@H]3N(C)CC2)CC[N+]1(C)C.[Cl-]`: the IC50 result (against Cytochrome P450 1A2; against B2 bradykinin receptor; in series [1] (insect cells); on Substance-K receptor (cho); in series [2]; in series [3]) was “Not Active” throughout. For the same molecule, the Ki entry (on Cytochrome P450 1A2; in series [3]) was “Not Active” in each case.
In the case of `NC(=O)N1c2ccccc2CCc2ccccc21`, the IC50 entry (at Cytochrome P450 1A2; on B2 bradykinin receptor; in series [1] (insect cells); against Substance-K receptor (cho); in series [2]; in series [3]) was “Not Active” each time. For the same molecule, the inhibition constant Ki entry (on Cytochrome P450 1A2; in series [3]) was “Not Active” throughout.
As to `O=C1CC[C@@H](N2C(=O)c3ccccc3C2=O)C(=O)N1`, the IC50 entry (on Cytochrome P450 1A2; at B2 bradykinin receptor; in series [1] (insect cells); against Substance-K receptor (cho); in series [2]; in series [3]) was “Not Active” each time. In addition, the Ki entry (on Cytochrome P450 1A2; in series [3]) was “Not Active” throughout.
For the molecule `Cc1onc(O)c1CC(N)C(=O)O` (racemic) [(R,S)-AMPA], the half-inhibitory concentration (IC50) result (at Cytochrome P450 1A2; at B2 bradykinin receptor; in series [1] (insect cells); at Substance-K receptor (cho); in series [2]; in series [3]) was “Not Active” in each case. Further, the Ki result (on Cytochrome P450 1A2; in series [3]) was “Not Active” in each case.
Regarding `Cc1ccc2cc3c(ccc4ccccc43)c3c2c1CC3` [3-METHYLCHOLANTHRENE], the 50% inhibitory concentration (IC50) result (on B2 bradykinin receptor; in series [1] (insect cells); at Substance-K receptor (cho); in series [2]; in series [3]) was “Not Active” each time. Besides, in series [3], the Ki entry is “Not Active”.
Regarding `CC[C@@]1(O)C[C@H](O[C@H]2C[C@H](N(C)C)[C@H](O[C@H]3C[C@H](O)[C@H](O[C@H]4CCC(=O)[C@H](C)O4)[C@H](C)O3)[C@H](C)O2)c2c(cc3c(c2O)C(=O)c2c(O)cccc2C3=O)[C@H]1C(=O)OC` [ACLARUBICIN], the IC50 entry (against Cytochrome P450 1A2; at B2 bradykinin receptor; in series [1] (insect cells); at Substance-K receptor (cho); in series [2]; in series [3]) was “Not Active” throughout. Moreover, the inhibition constant (Ki) result (at Cytochrome P450 1A2; in series [3]) was “Not Active” in each case.
Take `Nc1nc2c(ncn2COCCO)c(=O)[nH]1` [ACYCLOVIR]: the IC50 result (against Cytochrome P450 1A2; against B2 bradykinin receptor; in series [1] (insect cells); against Substance-K receptor (cho); in series [2]; in series [3]) was “Not Active” each time. Besides, the Ki result (on Cytochrome P450 1A2; in series [3]) was “Not Active” in each case.
In the case of `CN(C)c1nc(N(C)C)nc(N(C)C)n1` [ALTRETAMINE], the concentration for half-maximal inhibition (IC50) result (at B2 bradykinin receptor; in series [1] (insect cells); on Substance-K receptor (cho); in series [2]; in series [3]) was “Not Active” in each case. Moreover, the Ki result in series [3] is reported as “Not Active”.
`Nc1c(Br)cc(Br)cc1CN[C@H]1CC[C@H](O)CC1` [AMBROXOL]: the IC50 entry (on B2 bradykinin receptor; in series [1] (insect cells); against Substance-K receptor (cho); in series [2]; in series [3]) was “Not Active” throughout. Moreover, the Ki result in series [3] is “Not Active”.
In the case of `c1ccc2c(c1)c1cccc3ccc4cccc2c4c31` [BENZO[E]PYRENE], the IC50 entry (against B2 bradykinin receptor; in series [1] (insect cells); at Substance-K receptor (cho); in series [2]; in series [3]) was “Not Active” in each case. Besides, the Ki result in series [3] is “Not Active”.
Turning to `CN(C)CCCN1c2ccccc2Sc2ccc(Cl)cc21` [CHLORPROMAZINE], the IC50 entry against B2 bradykinin receptor was “Not Active”; in series [1] (read-out: IC50), 19.4 µM; at Substance-K receptor (read-out: IC50) it was 27.2 µM; in series [2] it was “Not Active”; in series [3] (read-out: IC50), 1.53 µM. For the same molecule, the Ki worked out at 9.07 µM at Substance-K receptor (read-out: Ki) and 1.49 µM in series [3] (read-out: Ki).
As for `CC(C)(Oc1ccc(Cl)cc1)C(=O)O` [CLOFIBRIC ACID], the IC50 result (against B2 bradykinin receptor; in series [1] (insect cells); on Substance-K receptor (cho); in series [2]; in series [3]) was “Not Active” throughout. Also, the Ki entry in series [3] is on record as “Not Active”.
For `C[C@]12CC[C@@H]3c4ccc(O)cc4CC[C@H]3[C@@H]1CCC2=O` [ESTRONE], the IC50 result (against B2 bradykinin receptor; in series [1] (insect cells); at Substance-K receptor (cho); in series [2]; in series [3]) was “Not Active” in each case. For the same molecule, the Ki result in series [3] was “Not Active”.
For `N=C(N)NCCN1CCCCCCC1` [GUANETHIDINE], the IC50 result (at B2 bradykinin receptor; in series [1] (insect cells); on Substance-K receptor (cho); in series [2]; in series [3]) was “Not Active” each time. The inhibition constant Ki result in series [3] is “Not Active”.
On to `CC1(C)S[C@@H]2[C@H](NC(=O)Cc3ccccc3)C(=O)N2[C@H]1C(=O)O` [PENICILLIN G], for which the IC50 entry (against B2 bradykinin receptor; in series [1] (insect cells); at Substance-K receptor (cho); in series [2]; in series [3]) was “Not Active” each time. Also, the Ki result in series [3] is reported as “Not Active”.
Regarding `CN(C)CCCN1c2ccccc2Sc2ccccc21` [PROMAZINE], the concentration for half-maximal inhibition (IC50) result is “Not Active” against B2 bradykinin receptor; “Not Active” in series [1] (insect cells); “Not Active” on Substance-K receptor (cho); “Not Active” in series [2]; 1.19 µM in series [3] (read-out: IC50). Also, the inhibition constant (Ki) in series [3] (read-out: Ki) is 1.16 µM.
